Assay results taken from US9090576B2, “2-substituted-p-quinone derivatives for treatment of oxidative stress diseases” (Edison Pharmaceuticals, Inc., priority 2008, dated 2015).

Columns and labels:
Type in all cases: cell-based
[1] = system: Human dermal fibroblasts from Friedreich's Ataxia patients; experiment: Rescue of BSO-stressed FRDA fibroblasts (Calcein AM viability); details: BSO-stressed FRDA fibroblasts (GM04078), less than about 150 nM, read-out: EC50, protection against FRDA
Procedure: An initial screen was performed to identify compounds effective for the amelioration of redox disorders. Test samples, 4 reference compounds (Idebenone, decylubiquinone, Trolox and α-tocopherol acetate), and solvent controls were tested for their ability to rescue FRDA fibroblasts stressed by addition of L-buthionine-(S,R)-sulfoximine (BSO), as described in Jauslin et al., Hum. Mol. Genet. 11(24):3055 (2002), Jauslin et al., FASEB J. 17:1972-4 (2003), and International Patent Application WO 2004/003565. […] This specific BSO-mediated cell death can be prevented by administration of antioxidants or molecules involved in the antioxidant pathway, such as α-tocopherol, selenium, or small molecule glutathione peroxidase mimetics. However, antioxidants differ in their potency, i.e. the concentration at which they are able to rescue BSO-stressed FRDA fibroblasts.
MEM (a medium enriched in amino acids and vitamins, catalog no. 1-31F24-I) and Medium 199 (M199, catalog no. 1-21F22-I) with Earle's Balanced Salts, without phenol red, were purchased from Bioconcept. Fetal Calf Serum was obtained from PAA Laboratories. Basic fibroblast growth factor and epidermal growth factor were purchased from PeproTech. Penicillin-streptomycin-glutamine mix, L-buthionine (S,R)-sulfoximine, (+)-α-tocopherol acetate, decylubiquinone, and insulin from bovine pancreas were purchased from Sigma. Trolox (6-hydroxy-2,5,7,8-tetramethylchromane-2-carboxylic acid) was obtained from Fluka. Idebenone was obtained from Chemo Iberica. Calcein AM was purchased from Molecular Probes. Cell culture medium was made by combining 125 ml M199 EBS, 50 ml Fetal Calf Serum, 100 U/ml penicillin, 100 μg/ml streptomycin, 2 mM glutamine, 10 μg/ml insulin, 10 ng/ml EGF, and 10 ng/ml bFGF; MEM EBS was added to make the volume up to 500 ml. A 10 mM BSO solution was prepared by dissolving 444 mg BSO in 200 ml of medium with subsequent filter-sterilization. During the course of the experiments, this solution was stored at +4° C. The cells were obtained from the Coriell Cell Repositories (Camden, N.J.; repository number GM04078) and grown in 10 cm tissue culture plates. Every third day, they were split at a 1:3 ratio.
The test samples were supplied in 1.5 ml glass vials. The compounds were diluted with DMSO, ethanol or PBS to result in a 5 mM stock solution. Once dissolved, they were stored at −20° C. Reference antioxidants (Idebenone, decylubiquinone, α-tocopherol acetate and trolox) were dissolved in DMSO.
Test samples were screened according to the following protocol:
(§1) A culture with FRDA fibroblasts was started from a 1 ml vial with approximately 500,000 cells stored in liquid nitrogen. Cells were propagated in 10 cm cell culture dishes by splitting every third day in a ratio of 1:3 until nine plates were available. Once confluent, fibroblasts were harvested. For 54 micro titer plates (96 well-MTP) a total of 14.3 million cells (passage eight) were re-suspended in 480 ml medium, corresponding to 100 μl medium with 3,000 cells/well. The remaining cells were distributed in 10 cm cell culture plates (500,000 cells/plate) for propagation. The plates were incubated overnight at 37° C. in an atmosphere with 95% humidity and 5% CO2 to allow attachment of the cells to the culture plate.
(§2) MTP medium (243 μl) was added to a well of the microtiter plate. The test compounds were unfrozen, and 7.5 μl of a 5 mM stock solution was dissolved in the well containing 243 μl medium, resulting in a 150 μM master solution. Serial dilutions from the master solution were made. The period between the single dilution steps was kept as short as possible (generally less than 1 second).
Plates were kept overnight in the cell culture incubator. The next day, 10 μl of a 10 mM BSO solution were added to the wells, resulting in a 1 mM final BSO concentration. Forty-eight hours later, three plates were examined under a phase-contrast microscope to verify that the cells in the 0% control (wells E1-H1) were clearly dead. […]

[2] = system: human dermal fibroblasts from Huntington's patients; experiment: Rescue of BSO-stressed fibroblasts from Huntington's patients (screen as Example A); details: Fibroblast, BSO-stressed Huntington's fibroblasts (GM 04281), less than about 150 nM, read-out: EC50, protection against Huntington's
Procedure: as §1, §2
(§3) Plates were kept overnight in the cell culture incubator. The next day, 10 μl of a 10 mM BSO solution were added to the wells, resulting in a 1 mM final BSO concentration. Forty-eight hours later, three plates were examined under a phase-contrast microscope to verify that the cells in the 0% control (wells E1-H1) were clearly dead. The medium from all plates was discarded, and the remaining liquid was removed by gently tapping the plate inversed onto a paper towel.
(§4) 100 μl of PBS containing 1.2 μM Calcein AM were then added to each well. The plates were incubated for 50-70 minutes at room temperature. After that time the PBS was discarded, the plate gently tapped on a paper towel and fluorescence (excitation/emission wavelengths of 485 nm and 525 nm, respectively) was read on a Gemini fluorescence reader. Data was imported into Microsoft Excel (EXCEL is a registered trademark of Microsoft Corporation for a spreadsheet program) and used to calculate the EC50 concentration for each compound.
Compounds of the invention were tested using the screen as described in Example A, but substituting FRDA cells with Huntington's cells obtained from the Coriell Cell Repositories (Camden, N.J.; repository number GM 04281). The compounds were tested for their ability to rescue human dermal fibroblasts from Huntington's patients from oxidative stress.

[3] = system: human dermal fibroblasts from LHON patients; experiment: Rescue of BSO-stressed fibroblasts from LHON patients (screen as Example A); details: Fibroblast, BSO-stressed LHON fibroblasts (GM03858), less than about 150 nM, read-out: EC50, protection against LHON
Procedure: as §1, §2, §3, §4
Compounds of the invention were screened as described in Example A, but substituting FRDA cells with Leber's Hereditary Optic Neuropathy (LHON) cells obtained from the Coriell Cell Repositories (Camden, N.J.; repository number GM03858). The compounds were tested for their ability to rescue human dermal fibroblasts from LHON patients from oxidative stress.

| Compound | EC50 [1] | EC50 [2] | EC50 [3] |
| --- | --- | --- | --- |
| CC1=C(C)C(=O)C(CCNC(=O)NCCN2CCOCC2)=C(C)C1=O [1-(2-morpholinoethyl)-3-(2-(2,4,5-trimethyl-3,6-dioxocyclohexa-1,4-dienyl)ethyl)urea] | < 150 nM | < 150 nM | < 150 nM |
| CCNC(=O)NCCC1=C(CCC(C)(C)O)C(=O)C(C)=C(C)C1=O [1-Ethyl-3-(2(2-(3-hydroxy-3-methylbutyl)-4,5-dimethyl-3,6-dioxocyclohexa-1,4-dienyl)ethyl)urea] | < 150 nM | < 150 nM | < 150 nM |
| CC1=C(C)C(=O)C(CCN(C)C(=O)Cc2ccc(Cl)cc2)=C(C)C1=O [2-(4-chlorophenyl)-N-methyl-N-(2-(2,4,5-trimethyl-3,6-dioxocyclohexa-1,4-dienyl)ethyl)acetamide] | < 150 nM | < 150 nM | < 150 nM |
| CC1=C(C)C(=O)C(CCC(C)C(=O)NCCc2ccccc2)=C(C)C1=O (centres unmarked) [2-methyl-N-phenethyl-4-(2,4,5-trimethyl-3,6-dioxocyclohexa-1,4-dienyl)butanamide] | < 150 nM | < 150 nM | < 150 nM |
| CC1=C(C)C(=O)C(CCN(C)C(=O)NCCN(C)C)=C(C)C1=O [3-(2-(dimethylamino)ethyl)-1-methyl-1-(2-(2,4,5-trimethyl-3,6-dioxocyclohexa-1,4-dienyl)ethyl)urea] | < 150 nM | < 150 nM | < 150 nM |
| CC(=O)c1ccc(C(=O)NCCC2=C(C)C(=O)C(C)=C(C)C2=O)cc1 [4-acetyl-N-(2-(2,4,5-trimethyl-3,6-dioxocyclohexa-1,4-dienyl)ethyl)benzamide] | < 150 nM | < 150 nM | < 150 nM |
| CC1=C(C)C(=O)C(CCNC(=O)c2ccc(C)cc2)=C(C)C1=O [4-methyl-N-(2-(2,4,5-trimethyl-3,6-dioxocyclohexa-1,4-dienyl)ethyl)benzamide] | < 150 nM | < 150 nM | < 150 nM |
| CC1=C(C)C(=O)C(CCNC(=O)N2CCN(C)CC2)=C(C)C1=O [4-methyl-N-(2-(2,4,5-trimethyl-3,6-dioxocyclohexa-1,4-dienyl)ethyl)piperazine-1-carboxamide] | < 150 nM | < 150 nM | < 150 nM |
| CC1=C(C)C(=O)C(CCC(C)(C)O)=C(CCNC(=O)CCCCC2CCSS2)C1=O (centres unmarked) [5-(1,2-Dithiolan-3-yl)-N-(2-(2-(3-hydroxy-3-methylbutyl)-4,5-dimethyl-3,6-dioxocyclohexa-1,4-dienyl)ethyl)pentanamide] | < 150 nM | < 150 nM | < 150 nM |
| CC1=C(C)C(=O)C(CCNC(=O)c2ccccc2)=C(C)C1=O [N-(2-(2,4,5-trimethyl-3,6-dioxocyclohexa-1,4-dienyl)ethyl)benzamide] | < 150 nM | < 150 nM | < 150 nM |
| CC1=C(C)C(=O)C(CCC(C)(C)O)=C(CCNS(=O)(=O)c2ccc(C)cc2)C1=O [N-(2-(2-(3-hydroxy-3-methylbutyl)-4,5-dimethyl-3,6-dioxocyclohexa-1,4-dienyl)ethyl)-4-methylbenzenesulfonamide] | < 150 nM | < 150 nM | < 150 nM |
| CC1=C(C)C(=O)C(CCC(C)(C)O)=C(CCNC(=O)c2ccccc2)C1=O [N-(2-(2-(3-hydroxy-3-methylbutyl)-4,5-dimethyl-3,6-dioxocyclohexa-1,4-dienyl)ethyl)-benzamide] | < 150 nM | < 150 nM | < 150 nM |
| CC1=C(C)C(=O)C(CCC(C)(C)O)=C(CCNS(C)(=O)=O)C1=O [N-(2-(2-(3-hydroxy-3-methylbutyl)-4,5-dimethyl-3,6-dioxocyclohexa-1,4-dienyl)ethyl)methanesulfonamide] | < 150 nM | < 150 nM | < 150 nM |
| CC1=C(C)C(=O)C(CCCC(=O)NCCc2ccccn2)=C(C)C1=O [N-(2-(pyridin-2-yl)ethyl)-4-(2,4,5-trimethyl-3,6-dioxocyclohexa-1,4-dienyl)butanamide] | – | < 150 nM | < 150 nM |
| CC1=C(C)C(=O)C(CCCC(=O)NCCc2ccncc2)=C(C)C1=O [N-(2-(pyridin-4-yl)ethyl)-4-(2,4,5-trimethyl-3,6-dioxocyclohexa-1,4-dienyl)butanamide] | < 150 nM | < 150 nM | < 150 nM |
| CC1=C(C)C(=O)C(CCCC(=O)Nc2ccccc2N)=C(C)C1=O [N-(2-aminophenyl)-4-(2,4,5-trimethyl-3,6-dioxocyclohexa-1,4-dienyl)butanamide] | < 150 nM | < 150 nM | < 150 nM |
| CC1=C(C)C(=O)C(CCCC(=O)Nc2ccccc2C#N)=C(C)C1=O [N-(2-cyanophenyl)-4-(2,4,5-trimethyl-3,6-dioxocyclohexa-1,4-dienyl)butanamide] | < 150 nM | < 150 nM | < 150 nM |
| CC1=C(C)C(=O)C(CCC(C)C(=O)NCCO)=C(C)C1=O (centres unmarked) [N-(2-hydroxyethyl)-2-methyl-4-(2,4,5-trimethyl-3,6-dioxocyclohexa-1,4-dienyl)butanamide] | < 150 nM | < 150 nM | < 150 nM |
| CC1=C(C)C(=O)C(CCCC(=O)NCCO)=C(C)C1=O [N-(2-hydroxyethyl)-4-(2,4,5-trimethyl-3,6-dioxocyclohexa-1,4-dienyl)butanamide] | < 150 nM | < 150 nM | < 150 nM |
| CC1=C(C)C(=O)C(CCCC(=O)Nc2cc(Cl)cc(Cl)c2)=C(C)C1=O [N-(3,5-dichlorophenyl)-4-(2,4,5-trimethyl-3,6-dioxocyclohexa-1,4-dienyl)butanamide] | < 150 nM | < 150 nM | < 150 nM |
| CC1=C(C)C(=O)C(CCC(C)C(=O)Nc2ccc(F)cc2)=C(C)C1=O (centres unmarked) [N-(4-fluorophenyl)-2-methyl-4-(2,4,5-trimethyl-3,6-dioxocyclohexa-1,4-dienyl)butanamide] | < 150 nM | < 150 nM | < 150 nM |
| CC1=C(C)C(=O)C(CCCC(=O)Nc2cccnc2)=C(C)C1=O [N-(pyridin-3-yl)-4-(2,4,5-trimethyl-3,6-dioxocyclohexa-1,4-dienyl)butanamide] | < 150 nM | < 150 nM | < 150 nM |
